Measurements taken from patent US10562869B2, “Oxadiazole compounds” (REMYND NV, priority 2014, dated 2020).

Key:
INS-1E cells = test: Cytokine-induced caspase-3/7 activation in INS-1E cells (beta cell stress/apoptosis model, Caspase-Glo 3/7); format: cell-based; conditions: Rattus norvegicus, cytokine mix (IFN-γ, IL-1β, TNF-α), 24 hours, caspase 3/7 activity, read-out: CYT EC50
Source text: The INS-1E cell line, a rat insulinoma cell line, has been characterized extensively. INS-1E cells respond to glucose by secreting insulin and, unlike most other immortalized β-cell lines, they do this in a consistent manner over time. The cells are sensitive to hyperglycemia-, free fatty acid (FFA)-, and cytokine-induced stress. Prolonged stress ultimately leads to induction of apoptotic pathways and, if stress is not counter-acted, to apoptosis. Caspase-3 and -7 play a central role downstream where various apoptotic pathways merge. As such, activation (i.e. cleavage) of these caspases forms a relevant primary read-out to evaluate protective activity of compounds against stress-induced apoptosis.
To evaluate the efficacy of different compounds to prevent induction of apoptosis, an in vitro screen was developed in which INS-1E cells were exposed to a cytokine mix (IFN-γ, 5 ng/ml; IL-1β, 20 pg/ml; TNF-α, 0.25 ng/ml). The degree of induction of apoptosis was evaluated using a substrate for cleaved caspase-3 and -7, i.e. a proluminescent caspase-3/7 DEVD aminoluciferin substrate with a thermostable luciferase (Caspase-Glo® 3/7 assay; Promega, cat. G8092).
On day 0, INS-1E cells were plated in a white-walled 96-well microplate (Greiner, cat. 655098) at 20,000 cells per well in 100 μl complete medium (RPMI containing 11 mM glucose supplemented with 5% FCS, 100 IU/ml penicillin, 100 μg/ml streptomycin, 10 mM HEPES, 1 mM Sodium Pyruvate and 50 μM 2-Mercapto-ethanol). On day 2, 100 μl medium containing cytokines and compound dissolved in DMSO was added to the cells. Wells without cytokines containing DMSO and wells with cytokines and DMSO were included to evaluate the degree of caspase 3/7 activation by the cytokine mix. After 24 hours exposure to cytokines and/or compound, Caspase-Glo® 3/7 reagent was added to the cells and caspase activity was determined by measuring luminescence.
To evaluate compound efficacy, the “toxicity window” was calculated by subtracting caspase activity of wells without stressor from activity of wells with stressor but without compound. The amount of caspase activity in the latter wells was normalized to 1 and used as reference. Subsequently, caspase activity in the wells with stressor and varying concentrations of compound was calculated relative to the wells without compound. Plotting caspase activity vs the log 10 of the concentration of compound permitted calculation of the EC50 values for the compounds which typically lied between 0.0001 and 10 μM. Compounds with an EC50<10 μM were considered active.

M17_3SYN cells = test: Paraquat-induced cytotoxicity (LDH) in α-synuclein over-expressing M17_3SYN neuroblastoma cells; format: cell-based, human; conditions: Homo sapiens, Neuroblastoma cell, 48 h, toxicity inhibition (LDH) in M17_3SYN cells challenged with 6 mM paraquat, 2 days; read-out: SYN EC50
Outline: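 Human BE-M17 neuroblastoma cells stably overexpressing wild-type α-synuclein challenged with paraquat (final 6 mM) for 2 days at 37 °C alongside compounds over a concentration range. Cytotoxicity as LDH released relative to total LDH; EC50 from dose-dependent inhibition curve.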

db/db mice = test: In vivo evaluation in db/db mice (type 2 diabetes model); conditions: 15 mg/kg IP, vs vehicle
Source text: For in vivo evaluation of compound efficacy, male BKS.Cg-+Leprdb/Leprdb/OlaHsd mice (db/db mice—Harlan) were used. The db/db phenotype results from a mutation in the leptin receptor gene, leading to a splice variant (Chen, Charlat et al. 1996; Lee, Proenca et al. 1996). The development of type 2 diabetes in db/db mice is associated with reduced insulin levels due to progressive β-cell failure following an initial period of hypersecretion of insulin. Since these mice develop type 2 diabetes in a manner related to pathology development in humans, and the model is accepted as in vivo model for evaluation of novel anti-diabetic treatments by the Food and Drug Administration (FDA, US), it is a highly relevant model for testing candidate drugs for efficacy.
Compounds were administered intraperitoneal (IP) or oral (PO) at a dose of maximally 50 mg/kg. Mice were subjected to metabolic analysis weekly or bi-weekly. These tests included but were not limited to determination of fasting (5 hrs) and non-fasting blood glucose levels, plasma insulin levels, % glycated hemoglobin (HbA1c) levels, glucose tolerance test and insulin sensitivity test.

CSc1ccc(S(=O)(=O)N2CCN(c3nc(C4(c5ccc(F)cc5)CC4)no3)CC2)cc1 [Cmpd110, 1-{3-[1-(4-Fluoro-phenyl)-cyclopropyl]-[1,2,4]oxadiazol-5-yl}-4-(4-methylsulfanyl-benzenesulfonyl)-piperazine]
EC50 (INS-1E cells): 0.01 µM
EC50 (M17_3SYN cells): 0.03 µM
Plasma insulin levels (db/db mice; after 6 weeks of treatment, FIG. 1C): significantly higher
weight gain (non-fasted body weight) (db/db mice; FIG. 1A): increased
Fasted blood glucose levels (db/db mice; FIG. 1B): significantly lower
